The results in this text go back to patent US20190133128A1, “Fungicidal pyridazinones” (FMC Corporation, priority 2017, published 2019).

Type in all cases: in vivo
One test concerns Botrytis cinerea. In words: Test C: preventive spray on tomato seedlings, gray mold, visual disease rating. The following applies: 250 ppm, 100 = 100% disease control, 0 = no control. Summed up: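 Compounds predissolved in acetone (3% of final volume), then suspended in 50/50 acetone/water with PEG400 surfactant. Sprayed preventively at 250 ppm or other indicated rate to run-off on tomato seedlings before Botrytis challenge; disease rated visually.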

The test system of a further test is Phakopsora pachyrhizi. Kind of test: Test A: preventive spray on soybean seedlings, Asian soybean rust, visual disease rating. The settings on record: 250 ppm, 100 = 100% disease control, 0 = no control.
The test system of another test is Zymoseptoria tritici. In words: Test E: preventive spray on wheat seedlings, wheat leaf blotch, visual disease rating. The settings on record: 250 ppm, 100 = 100% disease control, 0 = no control. Summed up:
(§1)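 Preventive foliar spray of wheat seedlings to run-off, at 250 ppm or other indicated rate. Compounds dissolved in acetone (3% of final volume), suspended in 50/50 acetone–water with PEG400 surfactant. Disease rated visually.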

A further test concerns Phytophthora infestans. Kind of test: whole plant or invertebrate. The settings on record: 250 ppm; tomato seedlings; 100 = 100% disease control, 0 = no control.
For a further test, the system named is Plasmopara viticola. Kind of test: Test B: preventive spray on grape seedlings, grape downy mildew, disease rating. The settings on record: 250 ppm, 100 = 100% disease control, 0 = no control. Summed up: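 Compounds were dissolved in acetone (3% of final volume) and suspended in 50/50 acetone/water with PEG400. They were sprayed at 250 ppm or another indicated rate to run-off on grape seedlings as a preventive treatment before downy mildew challenge, followed by disease rating.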

Test [1] has as its system Erysiphe graminis f. sp. tritici. Kind of test: Test G: preventive spray on wheat seedlings, wheat powdery mildew, visual disease rating. The settings on record: 250 ppm, 100 = 100% disease control, 0 = no control. Summed up: as §1
For test [2], the system named is Puccinia recondita f. sp. tritici. In words: Test F: preventive spray on wheat seedlings, wheat leaf rust, visual disease rating. The settings on record: 250 ppm, 100 = 100% disease control, 0 = no control. Summed up: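 Compounds were dissolved in acetone/water (50/50) with PEG400 surfactant and sprayed to run-off on wheat seedlings, at 250 ppm unless another rate is indicated. The next day, seedlings were inoculated with a Puccinia recondita f. sp. tritici spore suspension; disease was rated visually.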

With `COc1ccc(Cn2ncc(O)c(C(=O)Nc3ccc(OC(F)(F)F)cc3)c2=O)cc1` [Compound 115], in the test with Botrytis cinerea, the “Test C disease control rating” value turned out to be 0%. For the same compound, the “Test A disease control rating” value in the test on Phakopsora pachyrhizi is reported as 0%. Also, the “Test E disease control rating” value with Zymoseptoria tritici was 26%. For the same compound, the “Test D disease control rating” value with Phytophthora infestans came to 0%. The “Test B disease control rating” value in the test with Plasmopara viticola is reported as 0%. Besides, the “Test G disease control rating” value in test [1] is on record as 0%. The “Test F disease control rating” value in test [2] is listed as 68%.
